The source of these data is patent US20110177105A1, “Novel Selective Inhibitors of Ubiquitin Specific Protease 7, the Pharmaceutical Compositions Thereof and Their Therapeutic Applications” (priority 2010, published 2011).

Each structure is given as a SMILES string.

The target of one assay is T1, USP8 (Homo sapiens, UniProt P40818).
T1 construct: His tag (pFastBac-HT vector); made in house; host or cells: Sf9 or High Five insect cells, baculovirus
T1 sequence (P40818 1-1118): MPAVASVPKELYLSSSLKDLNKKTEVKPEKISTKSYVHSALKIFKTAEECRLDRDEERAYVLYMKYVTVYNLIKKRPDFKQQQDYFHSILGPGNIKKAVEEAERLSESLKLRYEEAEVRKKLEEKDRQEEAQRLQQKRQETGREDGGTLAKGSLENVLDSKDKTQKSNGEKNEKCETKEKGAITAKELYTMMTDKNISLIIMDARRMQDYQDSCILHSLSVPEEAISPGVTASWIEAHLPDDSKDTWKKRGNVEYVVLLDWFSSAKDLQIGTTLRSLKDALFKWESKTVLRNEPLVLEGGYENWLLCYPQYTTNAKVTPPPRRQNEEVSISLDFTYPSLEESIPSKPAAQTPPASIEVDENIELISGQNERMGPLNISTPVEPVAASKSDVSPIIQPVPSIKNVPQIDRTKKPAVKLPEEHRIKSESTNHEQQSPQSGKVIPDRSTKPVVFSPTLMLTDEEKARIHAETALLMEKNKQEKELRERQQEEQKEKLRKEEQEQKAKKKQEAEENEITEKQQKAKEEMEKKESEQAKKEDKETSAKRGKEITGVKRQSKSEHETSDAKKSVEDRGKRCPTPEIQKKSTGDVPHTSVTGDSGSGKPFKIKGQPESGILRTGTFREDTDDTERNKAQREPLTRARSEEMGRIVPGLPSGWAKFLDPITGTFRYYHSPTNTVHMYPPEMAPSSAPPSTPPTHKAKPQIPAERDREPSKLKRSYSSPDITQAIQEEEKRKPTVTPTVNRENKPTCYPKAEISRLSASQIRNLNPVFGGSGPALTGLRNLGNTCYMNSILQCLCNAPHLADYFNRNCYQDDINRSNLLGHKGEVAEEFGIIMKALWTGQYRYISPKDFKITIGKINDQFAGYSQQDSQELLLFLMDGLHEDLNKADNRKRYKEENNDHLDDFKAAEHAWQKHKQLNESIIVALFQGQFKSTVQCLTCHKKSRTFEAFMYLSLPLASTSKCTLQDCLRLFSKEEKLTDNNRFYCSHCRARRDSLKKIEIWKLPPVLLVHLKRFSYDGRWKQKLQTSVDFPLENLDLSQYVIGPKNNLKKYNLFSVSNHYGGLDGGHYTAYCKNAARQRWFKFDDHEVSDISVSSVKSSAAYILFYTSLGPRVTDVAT
Nature of the assay: USP8 activity assay (Ub-AMC). It counts as biochemical. Conditions: 300 nM Ub-AMC, 1.36 nM enzyme. The text has this:
The cDNA encoding USP8 was obtained by PCR amplification from placenta mRNA. USP8 cDNA was subcloned by PCR into a baculovirus expression vector (pFastBac-HT; Invitrogen). A cDNA encoding a mutated USP8 was generated by mutagenic PCR. The corresponding protein encodes a cysteine to alanine substitution at residue 786. The sequences were ascertained by sequencing of the entire open reading frame. Bacmids encoding USP8 were generated following DH10bac transposition. The corresponding bacmids were transfected into insect cells (Sf9). Viruses were recovered from culture supernatant and amplified twice. Insect cells (Sf9 or High Five; Invitrogen) were infected for 72 hours. Total cell lysates were harvested and lyzed in lysis buffer (Tris HCl 50 mM pH 7.6; 0.75% NP40; 500 mM NaCl; 10% glycerol; 1 mM DTT; 10 mM imidazole; Protease Inhibitor Cocktail; AEBSF 20 μg·ml^−1; Aprotinin 10 μg·ml^−1). Proteins were affinity purified on metal affinity resins (Talon Metal affinity resin; BD Biosciences). Bound materials were extensively washed in wash buffer (50 mM Sodium Phosphate pH 7.0; 300 mM NaCl; 10 mM imidazole; 0.5% Triton X-100; 10% glycerol) and eluted from the resin in 250 mM imidazole-containing wash buffer. Proteins were dialyzed in dialysis buffer (Tris HCl pH 7.6 20 mM; NaCl 200 mM; DTT 1 mM; EDTA 1 mM; 10% Glycerol). Proteins purifications were analyzed on 4-12% NuPAGE (Invitrogen).
USP8 was diluted in USP buffer (50 mM Tris HCl; 0.5 mM EDTA; 5 mM DTT; 0.01% Triton X-100; Bovine Serum Albumin 0.05 mg·ml^−1 pH 8.8). Compounds stocks (100 mM) were stored at −20° C. in DMSO. Compounds were tested at different concentrations: from […] to 91 nM.
Reactions were performed as duplicates in Black 384 well plates (small volume microplates; Greiner; 10 μl final reaction volume). The substrate concentration for USP8 was 300 nM Ub-AMC (Boston Biochem). The concentration of the enzyme (USP8) in specificity assays was 1.36 nM. The concentrations were determined in order to perform specificity assays under initial velocities at fixed substrate concentration. Compounds were pre-incubated with enzymes for 30 minutes at 25° C. Reactions were initiated by addition of substrate to the plates containing the enzymes (+/−compounds) diluted in assay buffer. Reactions were incubated for 60 minutes at 37° C. Reactions were stopped by adding acetic acid (100 mM final). Readings were performed on a Pherastar Fluorescent Reader (BMG). λ Emission 380 nm: λ Excitation=460 nm. Data (mean values+/−standard deviation) were analyzed as % of control (no compound) and plotted as percentage versus the Log of the compound concentration using GraphPad (Prism). Data were fitted to a sigmoidal model (variable slope).

In assay [1] the test system is HCT116 colon cancer cells. Nature of the assay: HCT116 cell viability and proliferation assay (MTS). Conditions: Homo sapiens, HCT-116, HCT116, 72 hours, read-out: Cell viability (MTS): HCT116 Gl50 Day 3. The class given is cell-based. On the procedure: HCT116 colon cancer cells were obtained from ATCC (American Type Culture Collection), and maintained in Mc Coy's 5A medium containing 10% FBS, 3 mM glutamine and 1% penicillin/streptomycin. Cells were incubated at 37° C. in a humidified atmosphere containing 5% CO2.
Cell viability was assayed using the MTS technique in 96-well culture plates (CellTiter 96® Aqueous Non-Radioactive Cell Proliferation Assay, Promega) according to the manufacturer's instructions. MTS (3-(4,5-dimethyl-thiazol-2-yl)-5-(3-carboxy-methoxyphenyl)-2-(4-sulfophenyl)-2H-tetra-zolium) is a MTT-derived tetrazolium that is reduced in metabolically active cells into a soluble, cell-permeant formazan. The amount of formazan, detected by its absorbance at 492 nm is proportional to the number of living, metabolically active cells.
10^3 HCT116 cells were seeded per well. 24 hours later, the medium was changed and the cells treated in triplicate with the concentrations of each compound from 100 μM to 50 nM. The compounds were diluted in 100% DMSO, whose final concentration on cells was kept at 0.5%.
Cells were incubated with the compounds for 72 hours, and their viability then assayed by the addition of MTS for 2 hours. Absorbance at 492 nm was measured directly from the 96-well culture plates. GI50 (Growth Inhibition 50) concentrations for each compound were calculated using a sigmoidal variable slope fit (Prism 4.0, Graphpad Softwares). Values represent mean of three independent experiments.

In the case of `CCCN(CCC)CCNC(=O)c1ccc2c(Cl)c3c(nc2c1)CCCC3` [Example 3, 9-Chloro-5,6,7,8-tetrahydro-acridine-3-carboxylic acid (2-dipropylamino-ethyl)-amide], the figures for the IC50 (at USP8; in assay [1]) were > 200 µM and 3.5 µM, respectively.
With `CCN(CC)CCNC(=O)c1ccc2c(Cl)c3c(nc2c1)CCCC3` [Example 7, 9-Chloro-5,6,7,8-tetrahydro-acridine-3-carboxylic acid (2-diethylamino-ethyl)-amide], the IC50 against USP8 is > 200 µM; in assay [1], 4.3 µM.
Consider `O=C(c1ccc2c(Cl)c3c(nc2c1)CCCC3)N1CCC(N2CCCCC2)CC1` [Example 16, [1,4′]Bipiperidinyl-1′-yl-(9-chloro-5,6,7,8-tetrahydro-acridin-3-yl)-methanone], for which the IC50 is > 200 µM on USP8 and 13.5 µM in assay [1].
Consider `CCN1CCCC1CNC(=O)c1ccc2c(Cl)c3c(nc2c1)CCCC3` (stereo not shown) [Example 2, 9-Chloro-5,6,7,8-tetrahydro-acridine-3-carboxylic acid (1-ethyl-pyrrolidin-2-ylmethyl)-amide], for which the IC50 in assay [1] was 5 µM.
As for `CC1CCCC(C)N1CCCNC(=O)c1ccc2c(Cl)c3c(nc2c1)CCCC3` (stereo not shown) [Example 9, 9-Chloro-5,6,7,8-tetrahydro-acridine-3-carboxylic acid [3-(2,6-dimethyl-piperidin-1-yl)-propyl]-amide], the IC50 on USP8 is > 200 µM; in assay [1], 3.6 µM.
In the case of `O=C(NCCCN1CCCC1)c1ccc2c(Cl)c3c(nc2c1)CCCC3` [Example 8, 9-Chloro-5,6,7,8-tetrahydro-acridine-3-carboxylic acid (3-pyrrolidin-1-yl-propyl)-amide], the IC50 against USP8 was > 200 µM; in assay [1] it was 5.9 µM.
On to `CCN(CCCNC(=O)c1ccc2c(Cl)c3c(nc2c1)CCCC3)Cc1ccccc1` [Example 5, 9-Chloro-5,6,7,8-tetrahydro-acridine-3-carboxylic acid [3-(benzyl-ethyl-amino)-propyl]-amide], for which the IC50 against USP8 was > 200 µM; in assay [1], 4 µM.
Regarding `CCCN(CCC)CCCNC(=O)c1ccc2c(Cl)c3c(nc2c1)CCCC3` [Example 6, 9-Chloro-5,6,7,8-tetrahydro-acridine-3-carboxylic acid (3-dipropylamino-propyl)-amide], the values for the IC50 (against USP8; in assay [1]) were > 200 µM and 3.9 µM, respectively.
For the compound `CN(C)CCNC(=O)c1ccc2c(Cl)c3c(nc2c1)CCCC3` [Example 11, 9-Chloro-5,6,7,8-tetrahydro-acridine-3-carboxylic acid (2-dimethylamino-ethyl)-amide], the IC50 is > 200 µM on USP8 and 7.8 µM in assay [1].
As to `CCN(CC)CCCNC(=O)c1ccc2c(Cl)c3c(nc2c1)CCCC3` [Example 10, 9-Chloro-5,6,7,8-tetrahydro-acridine-3-carboxylic acid (3-diethylamino-propyl)-amide], the IC50 at USP8 was > 200 µM; in assay [1], 5 µM.
For `CN(CCCNC(=O)c1ccc2c(Cl)c3c(nc2c1)CCCC3)Cc1ccccc1` [Example 14, 9-Chloro-5,6,7,8-tetrahydro-acridine-3-carboxylic acid [3-(benzyl-methyl-amino)-propyl]-amide], the IC50 was > 200 µM against USP8 and 4.1 µM in assay [1].
Turning to `O=C(c1ccc2c(Cl)c3c(nc2c1)CCCC3)N1CCCCCC1` [Example 12, Azepan-1-yl-(9-chloro-5,6,7,8-tetrahydro-acridin-3-yl)-methanone], the IC50 was > 200 µM against USP8 and 20 µM in assay [1].
Take `CCCCN(CC)CCNC(=O)c1ccc2c(Cl)c3c(nc2c1)CCCC3` [Example 4, 9-Chloro-5,6,7,8-tetrahydro-acridine-3-carboxylic acid [2-(butyl-ethyl-amino)-ethyl]-amide]: the IC50 on USP8 is > 200 µM; in assay [1], 4 µM.
As for `Cc1cccc(CN2CCC(CNC(=O)c3ccc4c(Cl)c5c(nc4c3)CCCC5)CC2)c1` [Example 1, 9-Chloro-5,6,7,8-tetrahydro-acridine-3-carboxylic acid [1-(3-methyl-benzyl)-piperidin-4-ylmethyl]-amide], the results for the IC50 (against USP8; in assay [1]) were > 200 µM and 2 µM, respectively.
For `CCCN1CCN(CCCNC(=O)c2ccc3c(Cl)c4c(nc3c2)CCCC4)CC1` [Example 13, 9-Chloro-5,6,7,8-tetrahydro-acridine-3-carboxylic acid [3-(4-propyl-piperazin-1-yl)-propyl]-amide] the same measures were > 200 µM and 5.9 µM.
As for `CN1CCN(CCCNC(=O)c2ccc3c(Cl)c4c(nc3c2)CCCC4)CC1` [Example 15, 9-Chloro-5,6,7,8-tetrahydro-acridine-3-carboxylic acid [3-(4-methyl-piperazin-1-yl)-propyl]-amide], the IC50 is > 200 µM on USP8 and 7.4 µM in assay [1].
